Measured values reported in patent US10588888B2, “CNS-accessible pharmacological chaperones for treatment of acid β-glucosidase-related disease states” (Children's Hospital Medical Center, priority 2017, dated 2020).
Residue numbers refer to the chain shown, from its start. Read-outs that look alike come from different tables or passages of the source.

Key:
[1] = molecular target: T1, GCase (4L/4L and 4L;C* fibroblasts) (Mus musculus, UniProt P17439, V412L); assay: Immunofluorescence co-localization of GCase and Lamp1 in mutant fibroblasts; assay type: cell-based; conditions: vs untreated cells
T1 construct: Fibroblast cells from wild type (WT) and GCase mutant mice; endogenous in cells; host or cells: mouse fibroblasts from V394L/V394L (4L/4L) and 4L/4L; saposin C-/- (4L;C*) mice
T1 sequence (P17439 20-515 V412L): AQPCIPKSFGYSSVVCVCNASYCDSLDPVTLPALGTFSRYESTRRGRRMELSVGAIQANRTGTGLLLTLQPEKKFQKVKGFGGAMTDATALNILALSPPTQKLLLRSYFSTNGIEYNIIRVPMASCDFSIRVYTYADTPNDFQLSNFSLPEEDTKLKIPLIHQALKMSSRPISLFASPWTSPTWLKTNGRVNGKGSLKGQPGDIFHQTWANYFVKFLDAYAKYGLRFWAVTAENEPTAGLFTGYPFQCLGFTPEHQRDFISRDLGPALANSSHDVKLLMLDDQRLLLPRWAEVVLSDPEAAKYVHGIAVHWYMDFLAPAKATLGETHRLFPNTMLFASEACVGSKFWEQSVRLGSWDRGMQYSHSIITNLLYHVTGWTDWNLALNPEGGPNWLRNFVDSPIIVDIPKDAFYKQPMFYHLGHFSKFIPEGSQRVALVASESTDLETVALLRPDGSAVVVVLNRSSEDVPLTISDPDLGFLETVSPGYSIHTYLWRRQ
Procedure: (§1) FIG. 5. Increased GCase protein in lysosomes of mouse fibroblasts treated with M chaperone compounds. (A) GCase (green) was co-stained with lysosomal marker, Lamp1 (red). Co-localization of GCase and Lamp1 (orange) indicates lysosomal localization of GCase.
(§2) Fibroblast cells from wild type (WT) and GCase mutant mice, homozygous V394L/V394L (4L/4L) and 4L/4L/with saposin C−/− (4L;C*) were cultured in 10% Bovine Calf Serum/Dulbecco's Modified Eagle's medium (DMEM). The compounds were dissolved in Dimethyl sulfoxide (DMSO) at 5 mM as a stock solution and stored at −20° C. For cell treatment, the stock was diluted with DMEM and added to cells. The cells were incubated with the compounds for 5 days and changed with fresh media with the compound every two days.
(§3) The cells grown on the chamber slides were fixed in 4% paraformaldehyde for 30 mins, followed by washing twice in Phosphate-buffered saline. The cells were permeablized with 0.3% Triton X-100 in Phosphate-buffered saline and washed with Phosphate-buffered saline for three times. After blocking for 30 min in 1.5% BSA/0.5% gelatin diluted in Phosphate-buffered saline, primary antibody, mouse anti-Lamp1 (1:200) and goat anti-mGCase (1:200) were applied to the cells and incubated overnight at 4° C. The signals were detected using Donkey anti-goat-FITC (1:500) and goat anti-mouse-Texas Red (1:500) to the cognate primary antibody. The stained cells were mounted with antifade containing DAPI.

[2] = molecular target: T2, GCase (WT fibroblasts) (Mus musculus, UniProt P17439); assay: Immunofluorescence co-localization of GCase and Lamp1 in WT fibroblasts; assay type: cell-based; conditions: vs untreated cells
T2 construct: Fibroblast cells from wild type (WT) and GCase mutant mice; endogenous in cells; host or cells: wild-type mouse fibroblasts
T2 sequence (P17439 20-515): T1 sequence (P17439 20-515 V412L) with L393V
Procedure: as §1, §2, §3

[3] = molecular target: T3, WT GCase (Mus musculus, UniProt P17439); assay: GCase activity in WT fibroblasts treated with compounds; assay type: cell-based; conditions: 5 days, 10 μM, vs untreated cells
T3 construct: Fibroblast cells from wild type (WT) and GCase mutant mice; endogenous in cells; host or cells: wild-type mouse fibroblasts
T3 sequence (P17439 20-515): T1 sequence (P17439 20-515 V412L) with L393V
Procedure: as §2
(§4) Cell pellets were collected and washed with Phosphate-buffered saline twice. The cell pellets were homogenized in 1% Na-taurocholate/1% Triton X-100 (Tc/Tx). GCase activity was determined fluorometrically with 4MU-Glc as substrate in 0.25% Tc/Tx diluted in 0.1M citrate phosphate (CP) buffer (pH 5.6) as described. Protein concentrations of cells and tissues were determined by BCA assay using BSA as standard.

[4] = molecular target: T4, mutant V394L GCase protein (Mus musculus, UniProt P17439, V412L); assay: Immunoblot of GCase protein in mutant fibroblasts; assay type: cell-based; conditions: 4L/4L and 4L;C* fibroblasts, 10 μM, 5 days, vs untreated cells
T4 construct: Fibroblast cells from wild type (WT) and GCase mutant mice; endogenous in cells; host or cells: mouse fibroblasts from V394L/V394L (4L/4L) and 4L/4L; saposin C-/- (4L;C*) mice
T4 sequence (P17439 20-515 V412L): T1 sequence (P17439 20-515 V412L)
Procedure: as §2
(§5) Cell pellets were collected and washed with Phosphate-buffered saline twice. The pellets were suspended in M-per lysis buffer. Freeze and thaw twice to break down the cell membrane. Protein concentration was determined by the bicinchoninic acid assay. The proteins were resolved on 4-12% NuPAGE gel (Invitrogen) and were transferred to PVDF membrane using iBlot 2 gel transfer device (Life Technologies) following manufactural instruction. The blotted membranes were incubated with Goat anti-mouse GCase (1:1000) in 1.5% BSA/1.5% milk/PBS buffer overnight at 4° C. followed by IRdye Donkey anti-Goat 1:5000. The signals were detected using LI-COR detection system according to manufacturer's instruction.

[5] = molecular target: T3, WT GCase; assay: Immunoblot of GCase protein in WT fibroblasts; assay type: cell-based; conditions: 10 μM, 5 days, vs untreated cells
Procedure: as §2, §5

[6] = molecular target: T5, Mutant GCase (V394L) (Mus musculus, UniProt P17439, V412L); assay: GCase activity in mutant GCase fibroblasts treated with compounds; assay type: cell-based; conditions: for GCase activity (in words): 4L/4L and 4L;C* fibroblasts, 10 μM, vs untreated cells
T5 construct: Fibroblast cells from wild type (WT) and GCase mutant mice; endogenous in cells; host or cells: mouse fibroblasts from V394L/V394L (4L/4L) and 4L/4L; saposin C-/- (4L;C*) mice
T5 sequence (P17439 20-515 V412L): T1 sequence (P17439 20-515 V412L)
Procedure: (§6) FIG. 1. Screen of small molecules with NCGC607 as a positive control. Mutant GCase (V394L) fibroblasts were incubated with small molecules for 5 days at various concentration.
as §2, §4

[7] = tested on: MDR1-MDCK cell monolayers; assay: MDR1-MDCK assay, blood-brain-barrier penetration potential; assay type: in vitro ADME; conditions: MDR1-MDCK
Procedure: (§7) MDR1-MDCK cell monolayers were grown to confluence on collagen-coated, microporous membranes in 12-well assay plates. The permeability assay buffer was Hanks' balanced salt solution containing 10 mM HEPES and 15 mM glucose at a pH of 7.4. The buffer in the receiver chamber also contained 1% bovine serum albumin. The dosing solution concentration was 5 μM of test article in the assay buffer. Cell monolayers were dosed on the apical side (A-to-B) or basolateral side (B-toA) and incubated at 37° C. with 5% CO2 in a humidified incubator. Samples were taken from the donor and receiver chambers at 120 minutes. Each determination was performed in duplicate. The flux of lucifer yellow was also measured post-experimentally for each monolayer to ensure no damage was inflicted to the cell monolayers during the flux period. All samples were assayed by LC-MS/MS using electrospray ionization.
(§8) The apparent permeability (Papp) and percent recovery were calculated as follows: Papp=(dCr/dt)×Vr/(A×CA) Percent Recovery=100×((Vr×Cr^final)+(Vd×Cd^final))/(Vd×CN)
(§9) Where, dCr/dt is the slope of the cumulative concentration in the receiver compartment versus time in μM s^−1; Vr is the volume of the receiver compartment in cm^3; Vd is the volume of the donor compartment in cm^3; A is the area of the insert (1.13 cm^2 for 12-well); CA is the average of the nominal dosing concentration and the measured 120 minute donor concentration in μM; CN is the nominal concentration of the dosing solution in μM; Cr final is the cumulative receiver concentration in M at the end of the incubation period; Cd final is the concentration of the donor in M at the end of the incubation period.
(§10) Efflux ratio (ER) is defined as Papp (B-to-A)/Papp (A-to-B).

[8] = tested on: MDR1; assay: as above; assay type: in vitro ADME; conditions: dog, 5 μM, 120 minutes
Procedure: as §7, §8, §9, §10

[9] = tested on: MDR1 (P-gp); assay: as above; assay type: in vitro ADME; conditions: dog; for Papp A→B at 120 min, 5 μM: MDCK-MDR1, pH 7.4, A to B; for Papp B→A at 120 min, 5 μM: MDCK-MDR1, pH 7.4, B to A
Procedure: as §7, §8, §9, §10

[10] = tested on: Mutant GCase (V394L) fibroblasts; assay: Toxicity in small molecule screen on mutant GCase fibroblasts; assay type: cell-based, mouse; conditions: 5 days, various concentration
Procedure: as §6, §2

[11] = molecular target: T6, Recombinant GCase (Homo sapiens, UniProt P04062); assay: Recombinant GCase activity with or without compound; assay type: biochemical; conditions: for Inhibition of GCase (in words): recombinant GCase
T6 sequence (P04062 40-536): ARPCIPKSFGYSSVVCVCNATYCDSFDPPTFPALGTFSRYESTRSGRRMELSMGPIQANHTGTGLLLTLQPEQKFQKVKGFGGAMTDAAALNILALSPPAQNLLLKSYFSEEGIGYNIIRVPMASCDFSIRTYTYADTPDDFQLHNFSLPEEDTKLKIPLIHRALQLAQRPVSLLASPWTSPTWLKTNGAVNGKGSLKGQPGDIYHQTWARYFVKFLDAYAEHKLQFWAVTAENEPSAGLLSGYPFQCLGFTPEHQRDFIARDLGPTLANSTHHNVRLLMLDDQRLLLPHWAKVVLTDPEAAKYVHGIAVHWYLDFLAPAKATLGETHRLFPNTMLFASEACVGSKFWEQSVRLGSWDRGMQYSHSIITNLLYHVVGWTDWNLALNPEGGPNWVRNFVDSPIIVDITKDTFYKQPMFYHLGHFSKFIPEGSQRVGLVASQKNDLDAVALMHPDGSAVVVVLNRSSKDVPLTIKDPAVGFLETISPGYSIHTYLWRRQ
Procedure: FIG. 2. […] Recombinant GCase was incubated with or without compound 216 at various concentration and GCase activity was determined.

[12] = average, 5 μM, read-out: Papp AVE
[13] = replicate 1, 5 μM, read-out: Papp R1
[14] = replicate 2, 5 μM, read-out: Papp R2

Lysosomal localization of GCase protein (Pearson index, in words) [1] | Lysosomal localization of GCase protein (Pearson index, in words) [2] | GCase activity (in words) [3] | GCase protein levels (in words) [4] | GCase protein levels (in words) [5] | GCase activity (in words) ([6]; 5 days) | SMILES | also measured
enhanced | enhanced | Increased | increased | increased | Increased | O=C(COc1ccccc1C(=O)NCC1CCCO1)Nc1ccc(Br)cc1 (stereo in doubt) [Compound 6, 2-((4-bromophenylcarbamoyl)methoxy)-N(((R)tetrahydrofuran-2-yl)methyl)benzamide] | 
enhanced | enhanced | Increased | increased | increased | Increased | O=C(COc1ccccc1C(=O)NC[C@@H]1CCCO1)Nc1ccc(Br)cc1 [Compound 8, 2-((4-bromophenylcarbamoyl)methyoxy)-N—(((S)-tetrahydrofuran-2-yl)methyl)benzamide] | Brain Penetration Classification [7]: High; Brain Penetration Classification ([7]; listed as #8): high; recovery at 120 min, 5 μM ([8]; MDCK-MDR1, pH 7.4, A to B): 77%; recovery at 120 min, 5 μM ([8]; MDCK-MDR1, pH 7.4, B to A): 86%; Papp A→B at 120 min, 5 μM [9, 12]: 32.1 ×10⁻⁶ cm/s; Papp A→B at 120 min, 5 μM [9, 13]: 33.4 ×10⁻⁶ cm/s; Papp A→B at 120 min, 5 μM [9, 14]: 30.8 ×10⁻⁶ cm/s; Papp B→A at 120 min, 5 μM [9, 12]: 34.4 ×10⁻⁶ cm/s; Papp B→A at 120 min, 5 μM [9, 13]: 31.8 ×10⁻⁶ cm/s; Papp B→A at 120 min, 5 μM [9, 14]: 37 ×10⁻⁶ cm/s; efflux ratio at 120 min, 5 μM ([9]; MDCK-MDR1, pH 7.4, Papp (B-to-A)/Papp (A-to-B), P-gp): 1.1; Activity in the mutant GCase fibroblasts assay (comparison of stereoisomers) ([6]; mutant GCase fibroblasts): better activity than Compound 6
enhanced | enhanced | Increased | increased | increased | Increased | O=C(COc1ccccc1C(=O)NCC1CCCO1)Nc1ccc(Br)cc1 (centres unmarked) [Compound 216] | Toxicity compared to 607 [10]: reduced toxicity; Inhibition of GCase (in words) [11]: non-inhibitory; AC50 ([11]; recombinant GCase incubated with compound at various concentration, read-out: AC50, activation effect on GCase): 10.1 µM; Inhibition of GCase (in words) ([11]; listed as compound 216): did not inhibit; Activation function on GCase compared to NCGC607 ([6]; V394L fibroblasts, 5 days, various concentration): superior
